From patent US9771336B2, “Tetrazole based corrosion inhibitors” (Ecolab USA Inc., priority 2013, dated 2017)
Where two headings read alike, the source gives them in different places.

Assays:
[1] = Copper corrosion rate with and without bleach in a cooling water environment
[2] = Mild steel corrosion rate (interaction with Cu2+); conditions: FIG. 12; compared with no HDTZ
From the text: Tetrazoles disclosed herein have a positive effect on mild steel corrosion. […] The proposed mechanism of action is suspected to be indirect: the likely interpretation is that HDTZ inactivates Cu^2+ in solution preventing the occurrence of galvanic cells on the coupon surface (lower corrosion rate), which could grow with time (stabilization of the corrosion rate).

[3] = Solubility (turbidity) of 2% solutions at various pH; assay type: physicochemical; conditions: 2% solution in RO water
[4] = system: Pimephales promelas; assay: Pimephales promelas 96-Hour Definitive Toxicity Test; assay type: in vivo; conditions: 96-hour test
Method: (§1) A composition of the invention including a BDTZ tetrazole component was evaluated using the Pimephales promelas 96-Hour Definitive Toxicity Test. Pimephales promelas used to initiate this test were obtained from in-house cultures and were 1 to 14 days old at test initiation. Test organisms were maintained in 100 percent control water (reconstituted moderately hard water) prior to test initiation. The 96-Hour Definitive Test was conducted using 300 to 500 milliliter (mL) disposable polypropylene containers containing 250 ml of control water or appropriate test solution. Ten test organisms were randomly introduced into each test chamber with two replicate chambers per treatment. Each Pimephales promelas test chamber was fed 0.1 mL of a concentrated suspension of less than 24-hour old live brine shrimp nauplii (Artemia sp.) several hours prior to the 48-hour testing period.
(§2) At the 48-hour testing period, test solutions were renewed by replacing approximately 90 percent of the old solution with fresh control water or appropriate test solution. Prior to renewal of test solutions, uneaten and dead brine shrimp, along with other debris, were removed from the bottom of the test chambers. Organism survival was determined daily by enumerating live Pimephales promelas in each test chamber. Survival was defined as any body movement after gentle prodding.
(§3) The test was conducted at a temperature of 20±1° C. under fluorescent lighting with a photoperiod of 16 hours light and 8 hours dark. Water quality measurements were performed on all control and test solutions prior to test initiation and on selected treatments daily thereafter.
(§4) Following termination of the 96-Hour Definitive Test, No Observed Effect Concentration (NOEC) and a 96-hour LC50 with corresponding 95 percent confidence interval were calculated, where possible. The NOEC value was determined using the statistically appropriate method. The LC50 value estimate was determined by using one of the following statistical methods: graphical, Spearman-Karber, Trimmed Spearman-Karber, or Probit. The method selected for reporting test results was determined by the characteristics of the data; that is, the presence or absence of 0 and 100 percent mortality and the number of concentrations in which mortalities between 0 and 100 percent occurred. All statistical analyses were performed using the CETIS™ Version 1.8.5.4 software program.
(§5) The reference toxicant, sodium chloride, was used to monitor the sensitivity of the test organisms and the precision of the testing procedure. Acute reference toxicant tests are performed at least monthly and the resulting LC50 values are plotted to determine if the results are within prescribed limits.

[5] = as above; assay type: in vivo; conditions: Pimephales promelas, in vivo, other: waterborne exposure in test solution; composition of BDTZ
Method: as §1, §2, §3, §4, §5

[6] = 3 ppm inhibitor, synthetic cooling water, 38° C., three hours
[7] = average copper corrosion rate, inhibitor concentration 5 ppm, with bleach
[8] = average copper corrosion rate, inhibitor concentration 5 ppm, without bleach

C(CCCc1nnn[nH]1)CCCc1nnn[nH]1 [HeDTZ, 1,7-di(1H-tetrazol-5-yl)heptane]
melting point: 144.19 °C | Corrosion Rate (mpy) with Bleach (1 FRC) [1, 7]: 0.027 mpy | Corrosion Rate (mpy) without Bleach [1, 8]: 0.009 mpy

C(CCCc1nnn[nH]1)CCc1nnn[nH]1 [HDTZ, 1,6-di(1H-tetrazol-5-yl)hexane]
effect on mild steel corrosion rate [2]: stabilize the corrosion rate | melting point: 183.75 °C | Corrosion Rate (mpy) with Bleach (1 FRC) [1, 7]: 0.0204 mpy | Corrosion Rate (mpy) without Bleach [1, 8]: 0.005 mpy

CCCCc1ccc2[nH]nnc2c1 [BBT, 5-butyl-1H-benzotriazole, reference compound]
Corrosion Rate (mpy) with Bleach (1 FRC) [1, 7]: 0.0189 mpy | Corrosion Rate (mpy) without Bleach [1, 8]: 0.0024 mpy

Cc1cc2nn[nH]c2cc1Cl [CITT, 5-methyl-6-chloro-1H-benzotriazole, reference compound]
Corrosion Rate (mpy) with Bleach (1 FRC) [1, 7]: 0.0057 mpy | Corrosion Rate (mpy) without Bleach [1, 8]: 0.0028 mpy

C(CCc1nnn[nH]1)Cc1nnn[nH]1 [BDTZ, 1,4-di(1H-tetrazol-5-yl)butane]
pH above which the solution remained clear ([3]; turbidity meter): > 5.6 | Survival (%) ([4]; composition of BDTZ, 625 mg/L as nominal): 100% | Survival (%) ([4]; composition of BDTZ, 1,250 mg/L as nominal): 100% | Survival (%) ([4]; composition of BDTZ, 2,500 mg/L as nominal): 100% | Survival (%) ([4]; composition of BDTZ, 5,000 mg/L as nominal): 100% | Survival (%) ([4]; composition of BDTZ, 10,000 mg/L as nominal): 100% | NOEC ([4]; composition of BDTZ): 10,000 mg/L | LC50 at 96 h [5]: > 10000 µg/mL | Corrosion Rate (mpy) with Bleach (1 FRC) [1, 7]: 0.0841 mpy | Corrosion Rate (mpy) without Bleach [1, 8]: 0.0088 mpy

c1ccc2[nH]nnc2c1 [BZT, 1H-benzotriazole, reference compound]
Corrosion Rate (mpy) with Bleach (1 FRC) [1, 7]: 0.1386 mpy | Corrosion Rate (mpy) without Bleach [1, 8]: 0.0032 mpy

C(CCCCc1nnn[nH]1)CCCc1nnn[nH]1 [ODTZ, 1,8-di(1H-tetrazol-5-yl)octane]
% loss of inhibitor ([6]; 1 ppm ActiBrom): 0.0% | % loss of inhibitor ([6]; 1 ppm Bleach): 2.6% | % loss of inhibitor ([6]; 1 ppm STABREX): 1.6% | % loss of inhibitor ([6]; 5 ppm ActiBrom): 1.3% | % loss of inhibitor ([6]; 5 ppm Bleach): 2.6% | % loss of inhibitor ([6]; 5 ppm STABREX): 2.6% | Corrosion Rate (mpy) with Bleach (1 FRC) [1]: 0.032 mpy | Corrosion Rate (mpy) without Bleach [1]: 0.026 mpy

Cc1ccc2[nH]nnc2c1 [TT, 5-methyl-1H-benzotriazole, reference compound]
pH above which soluble [3]: above 11.5 | pH to get a clear solution [3]: 12.0 | Corrosion Rate (mpy) with Bleach (1 FRC) [1, 7]: 0.0995 mpy | Corrosion Rate (mpy) without Bleach [1, 8]: 0.0214 mpy

C(CCc1nnn[nH]1)CCc1nnn[nH]1 [PeDTZ, 1,5-di(1H-tetrazol-5-yl)pentane]
Corrosion Rate (mpy) with Bleach (1 FRC) [1]: 0.145 mpy | Corrosion Rate (mpy) without Bleach [1]: 0.0012 mpy

hydrogenated tolyltriazole [HTT, reference compound]
Corrosion Rate (mpy) with Bleach (1 FRC) [1, 7]: 0.0187 mpy | Corrosion Rate (mpy) without Bleach [1, 8]: 0.0051 mpy
